# Literature values as cited in the CATMoS acute toxicity set (Mansouri et al. 2021).
# Assay: rat acute oral toxicity
# Details: in vivo
# From the text: […]The data set underlying the modeling effort for this project was initially compiled by NICEATM and U.S. EPA’s CCTE. Briefly, LD50 data were collected from rat acute oral systemic toxicity tests, including limit tests, ranges/confidence intervals, and discrete LD50 values. The full data set included 21,200 LD50 entries for 15,688 substances. […] Data were reviewed to ensure that LD50 values with obvious errors in the extracted data such as unit conversion errors (e.g., comma and decimal separator misplacements) were either fixed or removed. After this review, 16,209 LD50 values remained. Many of the chemicals represented had multiple LD50 entries, requiring that a single representative value per Chemical Abstracts Service Registry Number (CASRN) identifier be defined to facilitate modeling efforts. Based on ATWG feedback and to define the representative LD50 as a protective value while accounting for the distribution across multiple LD50s, the median of the lowest quartile was computed using only discrete LD50 values (omitting limit test data and range and confidence interval data). A detailed summary of the data compilation is available online on the NICEATM webpage dedicated to the collaborative modeling project (NTP 2020).
# […][…] For categorical designations, limit test and range/confidence interval LD50 data were integrated wherever possible. As such, the number of chemicals with end point values/calls varies across the modeling end points (Table 3) based on whether chemicals had representative LD50 values and/or other data. If a chemical had both, the representative value was used to determine categorical calls rather than limit test data. Some data were useable only for certain end points and categories depending on the thresholds. For example, ranges that spanned multiple hazard categories were considered only for the binary (very toxic/nontoxic) end points and omitted from rendering a determination for hazard category assignment.
# […]The final data set comprising 11,992 chemicals was split into training and evaluation sets […], respectively. This process was performed semirandomly by ordering chemicals based on the five end points (categorical and continuous LD50 values) and partitioning every fourth record into the evaluation set accordingly. This approach was taken to ensure an equivalent distribution of the LD50 values and the different hazard categories between the training and the evaluation sets without supervised sampling of the chemicals based on structures (Figure 1A). The sources of the chemical structures were also kept equivalent between the two sets, with chemical structures obtained from DSSTox, being the highest quality, representing over 75% of each set (Figure 1B).
row,SMILES,LD50
1,CCCCOP(=O)(OCCCC)Oc1ccc2c(C)c(Cl)c(=O)oc2c1,63 mg/kg
2,CCN(CC)C(=O)c1cccc(OC)c1O,2080 mg/kg
3,C=CCn1c(=O)c2[nH]c(C)nc2n(CC(C)C)c1=O,17 mg/kg
4,Cn1c([N+](=O)[O-])cnc1COC(N)=O,3400 mg/kg
5,O=C(O)c1c(Cl)c(Cl)c(Cl)c(Cl)c1C1c2cc(Br)c(O)c(Br)c2Oc2c1cc(Br)c(O)c2Br,8400 mg/kg
6,C1CCC2OCCOCCOC3CCCCC3OCCOCCOC2C1 (configuration not stated),176 mg/kg
7,COc1ccc2c(c1)OC(C)(C)C(c1ccccc1)C2c1ccc(OCC2CO2)cc1 (configuration not stated),800 mg/kg
8,O=C(O)CCCO,9690 mg/kg
9,O=[N+]([O-])c1cc(Br)cc2[nH]c(C(F)(F)F)nc12,1.23 mg/kg
10,CCCCCCCNC(=O)Oc1ccc2c(c1)C1(C)CCN(C)C1N2C (configuration not stated),25.1 mg/kg
11,Cc1nc2ccccc2c(=O)n1-c1ccccc1C(=O)O,1550 mg/kg
12,O=C(O)C(Br)Br,1740 mg/kg
13,CN=c1oc2ccccc2n1C,1000 mg/kg
14,CNC1(c2ccccc2Cl)CCCCC1=O (configuration not stated),447 mg/kg
15,CCCSP(=O)(OCC)Oc1ccccc1 (configuration not stated),295 mg/kg
16,O=[n+]1c2c(n([O-])c3ccccc31)CCCC2,1360 mg/kg
17,O=C(O)CC(O)c1ccc(-c2ccc(Cl)cc2)o1 (configuration not stated),2460 mg/kg
18,Cc1cn([C@H]2C=C[C@@H](CO)O2)c(=O)[nH]c1=O,4000 mg/kg
19,CC(=O)CCc1ccc(OC(C)=O)cc1,3040 mg/kg
20,O=C(O)c1ccccc1OP(=O)(O)O,1100 mg/kg
21,CC(=O)Nc1ccc(CC(=O)O)cc1,14800 mg/kg
22,COC(=O)C1=C(C#N)NC(C)=C(C(=O)OC(C)C)C1c1cccc([N+](=O)[O-])c1 (configuration not stated),1560 mg/kg
23,CC(Cl)COP(=O)(OCC(C)Cl)OCC(C)Cl (configuration not stated),1020 mg/kg
24,CC(C)NCC(O)COc1ccc(CCOCC2CC2)cc1 (configuration not stated),998 mg/kg

row,SMILES,LD50
1,CC(C)=CC=O,690 mg/kg
2,Cc1ccc(C(C)(C)C)cc1,1560 mg/kg
3,Cc1ccccc1C(OC1CC2CCC(C1)N2C)c1ccccc1 (configuration not stated),400 mg/kg
4,Cc1cc(C)c(C2=C(OC(=O)C(C)(C)C)c3ccccc3C2=O)c(C)c1,8000 mg/kg
5,CCC1NC(=O)C2C(Cl)C(Cl)CN2C(=O)C(CO)NC(=O)CC(c2ccccc2)NC(=O)C(CO)NC1=O (configuration not stated),5 mg/kg
6,Nc1cc(S(=O)(=O)O)cc2cc(S(=O)(=O)O)c(/N=N\c3ccc(-c4ccc(/N=N/c5c(S(=O)(=O)O)cc6cc(S(=O)(=O)O)cc(N)c6c5O)cc4)cc3)c(O)c12,8760 mg/kg
7,COCCOC(C)OCCOC,3260 mg/kg
8,Cc1c(Cl)c(=O)oc2cc(OP(=O)(OCC(C)Cl)OCC(C)Cl)ccc12 (configuration not stated),686 mg/kg
9,CN1CCN(CCCN2c3ccccc3Sc3ccc(Cl)cc32)CC1,1800 mg/kg
10,C=Cc1ccccn1,100 mg/kg
11,CCCCC(=O)c1ccc(N)cc1,84 mg/kg
12,CC[N+](CC)(CC)Cc1ccc(C(C)C(C)c2ccccc2)cc1 (configuration not stated),2180 mg/kg
13,FC(F)(F)c1nc2c(Br)c(Br)c(Br)c(Br)c2[nH]1,5.02 mg/kg
14,Cc1ncc2c(c1O)CSSC2,1110 mg/kg
15,Cc1ccccc1C(=O)NC1=NCCS1,912 mg/kg
16,COc1cc(C(=O)Oc2c(CCC(C)=O)c(=O)n(-c3ccccc3)n2-c2ccccc2)cc(OC)c1OC,3000 mg/kg
17,O=C(NC1CCN(CCc2c[nH]c3ccccc23)CC1)c1ccccc1,1800 mg/kg
18,COc1ccc(C[C@H]2NC[C@H](O)[C@H]2OC(C)=O)cc1,72 mg/kg
19,CCOC(=O)CN1CCN(C(=O)C=Cc2cc(OC)c(OC)c(OC)c2)CC1,4190 mg/kg
20,CC(C)COC(=O)C(C)C,12800 mg/kg
21,Cc1ccc(C(=O)CC(=O)C(F)(F)F)cc1,300 mg/kg
22,O=C(O)C(F)(F)C(F)F,8570 mg/kg
23,COc1cccc(C(=O)NC2CC3CCC(C2)N3Cc2ccccc2)c1OC (configuration not stated),147 mg/kg
